According to ChEMBL document CHEMBL2074424, “Breast cancer resistance protein directly confers SN-38 resistance of lung cancer cells” (Biochem Biophys Res Commun, 2001):

Target: T1, Broad substrate specificity ATP-binding cassette transporter ABCG2 (Homo sapiens, UniProt Q9UNQ0)
T1 sequence (Q9UNQ0 whole entry): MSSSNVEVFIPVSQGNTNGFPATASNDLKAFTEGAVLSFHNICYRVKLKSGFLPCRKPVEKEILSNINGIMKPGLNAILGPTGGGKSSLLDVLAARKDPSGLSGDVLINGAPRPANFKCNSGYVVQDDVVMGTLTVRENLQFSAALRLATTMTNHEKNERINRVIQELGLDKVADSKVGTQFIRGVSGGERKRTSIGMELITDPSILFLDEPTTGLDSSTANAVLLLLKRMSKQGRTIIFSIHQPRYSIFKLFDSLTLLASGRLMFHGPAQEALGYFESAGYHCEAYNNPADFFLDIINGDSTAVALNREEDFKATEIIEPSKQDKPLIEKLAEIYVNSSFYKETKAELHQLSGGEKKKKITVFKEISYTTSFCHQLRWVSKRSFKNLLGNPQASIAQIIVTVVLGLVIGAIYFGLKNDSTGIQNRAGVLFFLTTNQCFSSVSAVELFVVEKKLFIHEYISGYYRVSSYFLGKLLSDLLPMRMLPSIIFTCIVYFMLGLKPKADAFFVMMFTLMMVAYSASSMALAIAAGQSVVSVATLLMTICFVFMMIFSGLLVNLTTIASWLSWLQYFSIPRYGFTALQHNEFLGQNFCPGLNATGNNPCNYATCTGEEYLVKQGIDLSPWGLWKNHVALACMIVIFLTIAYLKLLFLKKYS
Assay: TP_TRANSPORTER: inhibition of accumulation by antisense of BCRP in PC-6/SN2-5,PC-6/SN2-5H cells
Assay type: functional, cell-based

Activity: substrate [+]
SMILES: CCc1c2c(nc3ccc(O)cc13)-c1cc3c(c(=O)n1C2)COC(=O)[C@]3(O)CC [7-ETHYL-10-HYDROXYCAMPTOTHECIN]
